According to patent publication US20060128613A1, “Melanocortin receptor ligands” (The Procter & Gamble Company, priority 2003, published 2006):

Assay: Composition and Method Examples A-E: treatment of obese human subjects to incur or maintain weight loss
Assay type: in vivo
Experimental: An obese human subject weighing 130 kg is treated by this method to incur weight loss. Specifically, once each day for a period of 6 months, the subject is administered, via intravenous injection, 15 ml of an aqueous solution comprising the following:
An obese human subject weighing 150 kg is subjected to a weight-reduction program that achieves weight loss with reduced adiposity through a combination of a restricted diet and increased exercise. Specifically, once each day for a period of 6 months after weight loss, the subject is administered, via intravenous injection, 15 ml of an aqueous solution comprising the following:
An obese human subject weighing 165 kg is subjected to a weight reduction program that achieves weight loss through a combination of restricted diet, increased exercise and subcutaneous injection daily of 15 mls of an aqueous solution comprising:
Once the desired weight loss has been achieved, the patient's weight loss is maintained through continuation of the intravenous injection once each day for an additional period of 6 months.
An obese human subject weighing 140 kg is treated by the present method to incur weight loss. Specifically, they are treated with an implantable subcutaneous pump that delivers 0.1 mg/kg of the compound of Example 31 over a 24 hour period. The pump contains a solution of the compound dissolved in a solution of 50% propylene glycol and 50% sterile water.
An obese person weighing 150 kg is treated by this method to incur weight loss. Specifically, they are treated with an oral tablet taken twice daily containing 300 mg of the compound in Example 29.

Substance: 3-(4-OHPh)propanoyl-(4-F-f)RW—NH2 [Example 88]
- maintained weight loss and adiposity at the end of the treatment period (Example C: obese human 165 kg, diet, exercise and daily subcutaneous injection of 15 ml, 5 mg/ml, then injection once each day for additional 6 months): maintained weight loss and reduced adiposity

Substance: Ac-(L-4-Chloro-Phe)(D-4-Fluoro-Phe)RW—NH2 [Example 29]
- weight loss and adiposity after 12 months treatment (Example E: obese person 150 kg, oral tablet 300 mg twice daily, 12 months): weight loss and reduced adiposity

Substance: Ac-(L-4-Chloro-Phe)fRW(N-Me-Gly)-NH2 [Example 31]
- weight loss and adiposity after six-month treatment (Example D: obese human 140 kg, implantable subcutaneous pump delivering 0.1 mg/kg over 24 hours, six months): weight loss and reduced adiposity

Substance: Ac—YfHW—NH2 [Example 9]
- maintenance of weight loss and adiposity at the end of the treatment period (Example B: obese human 150 kg after diet and exercise weight loss, intravenous injection once each day for 6 months, 15 ml, 5 mg/ml): maintenance of weight loss and reduced adiposity

Substance: Ac—YfRW—NH2 [Example 1]
- weight loss at the end of the treatment period (Example A: obese human 130 kg, intravenous injection once each day for 6 months, 15 ml aqueous solution, 5 mg/ml): measurable weight loss
